According to paper PMC10887214 (Biomedicines, 2024):

Key:
C57BL/6J mice [1] = assay: Home cage activity test; assay type: in vivo, mouse; settings: i.p., OS 2 mg/kg, WIN 0.5 mg/kg, 21 h
Experimental: (§1) Animal housing. Forty-eight Male C57BL/6J mice were purchased from Janvier Labs (Le Genest-Saint-Isle, France) and were time-specifically housed in a 12 h light-dark cycle (lights on at 7 am), with ad libitum water and food in conditioned rooms (22 °C, humidity ~60%).
(§2) Behavior assays. All mice were subjected to a behavioral test battery that consisted of several general performance tasks of locomotor activity, exploratory and anxiety-like behavior, and learning and memory. Mice were divided into four groups: Vehicle, OS (2 mg/kg), WIN55 (0.5 mg/kg), or OS + WIN. Each group consisted of 7–14 mice that received two i.p injections before each test, with a 10 min interval between each injection. Veh + Veh were injected with PBS. Veh + WIN were injected with PBS and WIN55. Veh + OS were injected with PBS and OS. OS + WIN were injected with OS and WIN55. PBS was used as vehicle as it was used for dilution of drugs. Tests were performed in the order described below after 10 min of the last injection, with a 24 h interval between each test.
Cage activity assessment: At P60, animals were moved to the cage activity room for one hour before injections for habituation.. The cage activity assessment consists of placing the mice in a transparent box which is placed between three infrared sensors (two on the cage’s side and one in its front) that count how many times the mice cross the infrared beams. The times of beams crossed in each 30 min were counted over a period of 24 h and used as a locomotor activity measurement. In addition, we also compared the total number of beams crossed during the day and night period. For this test, we used Veh (n = 10), OS (n = 9), WIN (n = 11), OS + WIN (n = 8).

C57BL/6J mice [2] = assay: Open Field (OF); assay type: in vivo, mouse; settings: i.p., WIN 0.5 mg/kg
Experimental: as §1, §2
Open Field (OF): One day after the cage activity test, mice were tested in the OF paradigm. The OF aimed to test the OS, WIN, and OS + WIN effect on animal locomotion and exploratory behavior. Animals were placed in the test room one hour before starting the test. For the OF, animals were placed in a plexiglass box (60 × 60 × 60 cm) divided into three zones (center, periphery, and corners) for 10 min and left free to explore. Total distance and time in zones were counted. Here, more time in the center meant an anxiolytic effect, and a higher distance walking meant an increase in locomotor activity. For this test, we used Veh (n = 8), OS (n = 10), WIN (n = 7), OS + WIN (n = 8).

C57BL/6J mice [3] = assay: Morris Water Maze (MWM); assay type: in vivo, mouse; settings: i.p., WIN 0.5 mg/kg
Experimental: as §1, §2
Morris Water Maze (MWM): MWM [32] was used to assess the effects of OS, WIN, and OS + WIN in memory one day after the EPM test. MWM is a gold standard test to assess learning and memory consisting of 10 days of training and two probe trials in a pool with water at a temperature of 26 °C, with one submersed platform invisible to mice. Each mouse could try to find the platform for 100 s, four times per day, with an inter-trial interval of 15–30 min. In each trial, animals were released randomly from each of the four starting positions. This protocol of training was repeated for ten days (training sessions). The platform was removed on the 6th and 11th days, and the animals were left free to swim for 100 s (probe trials). Right after the first probe trial (day 6), animals were trained again with the platform at the same place. During the training sessions, the mean latency to find the platform for the session was calculated for each animal as the average of the four trials of the day. During the probe trials, the pool was divided into four equal virtual quadrants, and the time spent in the target quadrant (TQ) (i.e., the quadrant where the platform was located during the training sessions) was assessed as a measure of memory retention. For this test, we used Veh (n = 9), OS (n = 8), WIN (n = 8), OS + WIN (n = 14).

chimeric CB1/2 receptor = assay: Two-electrode voltage-clamp, chimeric CB1/2-GIRK1/GIRK2-RGS4 coupling system expressed in oocytes; settings: WIN55,212-2 concentration–response

## Cc1c(C(=O)c2cccc3ccccc23)c2cccc3c2n1[C@H](CN1CCOCC1)CO3 [WIN55,212-2, reference compound]
C57BL/6J mice [1]
  Cage activity (beam crossings) 2 h after the beginning of night phase: did not change the activity
C57BL/6J mice [2]; OS 2 mg/kg, 10 min test
  Total distance walked in open field (locomotion): neither OS nor WIN affected locomotion
C57BL/6J mice [2]
  Time spent in the periphery of open field compared to the control: spent less time in the periphery
C57BL/6J mice [3]; OS 2 mg/kg, days 3, 4, 5, 6 and 8
  Time to find the platform in training sessions vs control: performed significantly worse than the control
C57BL/6J mice [3]
  Time spent in the target quadrant (TQ), first probe trial: ~ 25%
Chimeric CB1/2 receptor
  Receptor activation: activated by WIN55,212-2 in a concentration-dependent manner
